Results published in patent US6410515B1, “Peptide, a method for its preparation and a pharmaceutical composition containing the peptide” (Immunotech Developments Inc., priority 1995, dated 2002).

Legend:
[1] = test system: CFU-S population of bone marrow; experiment: Spleen colony and CFU-S count after peptide injection to marrow donor mice; type: in vivo; conditions: for Colony count: control 10,7 ± 0,5; for CFU-S count: control 2436
Procedure: The effect of peptides of the present invention on a population of hemopoietic progenitors was studied by testing for colony formation by hemopoietic stem cells in spleens of irradiated mice.
The peptide was injected intraperitoneally (IP) at different concentrations to intact mice. After two hours, one day, or two days the animals were killed. The bone marrow from the animals was taken to prepare a suspension of marrow cells, which was injected to lethally irradiated (8.5 Gy) mice. Along with the bone marrow, the recipients received injections of thymocytes. After 9 days, spleen colonies were counted. […]
The treatment was performed as described in Example 4(c).

[2] = test system: (CBA×C57 B1) F1 mice; experiment: Chronic lymphocyte-induced GVHR in irradiated (6 Gy) mice; type: in vivo; conditions: for Survival (%) / Survival (mice): after 60 days; for Survival (%): control 60; for Survival (mice): of 10 mice, control 6
Procedure: Recipient (CBA×C57 B1) F1 mice were irradiated with the dose of 6 Gy. Two hours after irradiation they were intravenously injected with 6 mln lymphocytes from mesenteric lymph nodes of C57B1 donor mice. […] The peptide was injected intraperitoneally once daily, 5 days a week, until day 21, for a total of 14 injections.
Indicators of the degree of GVHR development were animal weight and lymphocyte and leukocyte count. The animals were weighed every 3 days. On day 14 and day 28 lymphocyte and leukocyte count were determined using peripheral blood.

[3] = Peptide IP to donor mice 2 hours before
[4] = Peptide IP to donor mice 1 day before
[5] = Peptide IP to donor mice 2 days before

Substance: H-D-iGlu-D-Trp-OH [iDD]
- Colony count [1, 3]: 6,6 ± 0,5
- CFU-S count [1, 3]: 917
- Colony count [1, 4]: 4,7 ± 0,6
- CFU-S count [1, 4]: 653
- Colony count ([1]; Peptide IP to donor mice 2 days before + thymocytes): 9,4 ± 0,9
- Colony count [1, 5]: 6,0 ± 0,9
- CFU-S count [1, 5]: 1098
- Animal Weight ([2]; Dose 10 μ/kg, Day 5, initial average 18.3 g): 18.0 grams
- Animal Weight ([2]; Dose 10 μ/kg, Day 8): 18.3 grams
- Animal Weight ([2]; Dose 10 μ/kg, Day 12): 18.3 grams
- Animal Weight ([2]; Dose 10 μ/kg, Day 14): 17.8 grams
- Animal Weight ([2]; Dose 10 μ/kg, Day 19): 17.6 grams
- Animal Weight ([2]; Dose 10 μ/kg, Day 21): 17.8 grams
- Animal Weight ([2]; Dose 10 μ/kg, Day 23): 18.6 grams
- Animal Weight ([2]; Dose 10 μ/kg, Day 26): 18.9 grams
- Animal Weight ([2]; Dose 10 μ/kg, Day 30): 18.9 grams
- Animal Weight ([2]; Dose 10 μ/kg, Day 33): 18.9 grams
- Animal Weight ([2]; Dose 10 μ/kg, Day 40): 19.2 grams
- Animal Weight ([2]; Dose 10 μ/kg, Day 47): 19.9 grams
- Animal Weight ([2]; Dose 10 μ/kg, Day 54): 20.0 grams
- Animal Weight ([2]; Dose 10 μ/kg, Day 60): 20.0 grams
- Animal Weight ([2]; Dose 100 μ/kg, Day 5, initial average 18.3 g): 18.6 grams
- Animal Weight ([2]; Dose 100 μ/kg, Day 8): 18.5 grams
- Animal Weight ([2]; Dose 100 μ/kg, Day 12): 18.6 grams
- Animal Weight ([2]; Dose 100 μ/kg, Day 14): 19.0 grams
- Animal Weight ([2]; Dose 100 μ/kg, Day 19): 19.0 grams
- Animal Weight ([2]; Dose 100 μ/kg, Day 21): 19.3 grams
- Animal Weight ([2]; Dose 100 μ/kg, Day 23): 19.6 grams
- Animal Weight ([2]; Dose 100 μ/kg, Day 26): 19.6 grams
- Animal Weight ([2]; Dose 100 μ/kg, Day 30): 19.7 grams
- Animal Weight ([2]; Dose 100 μ/kg, Day 33): 19.7 grams
- Animal Weight ([2]; Dose 100 μ/kg, Day 40): 20.0 grams
- Animal Weight ([2]; Dose 100 μ/kg, Day 47): 20.3 grams
- Animal Weight ([2]; Dose 100 μ/kg, Day 54): 20.4 grams
- Animal Weight ([2]; Dose 100 μ/kg, Day 60): 20.4 grams
- Animal Weight ([2]; Dose 1000 μ/kg, Day 5, initial average 18.3 g): 19.1 grams
- Animal Weight ([2]; Dose 1000 μ/kg, Day 8): 19.1 grams
- Animal Weight ([2]; Dose 1000 μ/kg, Day 12): 18.9 grams
- Animal Weight ([2]; Dose 1000 μ/kg, Day 14): 18.9 grams
- Animal Weight ([2]; Dose 1000 μ/kg, Day 19): 19.4 grams
- Animal Weight ([2]; Dose 1000 μ/kg, Day 21): 19.6 grams
- Animal Weight ([2]; Dose 1000 μ/kg, Day 23): 19.8 grams
- Animal Weight ([2]; Dose 1000 μ/kg, Day 26): 19.8 grams
- Animal Weight ([2]; Dose 1000 μ/kg, Day 30): 20.0 grams
- Animal Weight ([2]; Dose 1000 μ/kg, Day 33): 20.0 grams
- Animal Weight ([2]; Dose 1000 μ/kg, Day 40): 20.2 grams
- Animal Weight ([2]; Dose 1000 μ/kg, Day 47): 20.5 grams
- Animal Weight ([2]; Dose 1000 μ/kg, Day 54): 20.1 grams
- Animal Weight ([2]; Dose 1000 μ/kg, Day 60): 20.4 grams
- Survival (%) ([2]; Dose 10 μ/kg): 90%
- Survival (mice) ([2]; Dose 10 μ/kg): 9
- Survival (%) ([2]; Dose 100 μ/kg): 90%
- Survival (mice) ([2]; Dose 100 μ/kg): 9
- Survival (%) ([2]; Dose 1000 μ/kg): 80%
- Survival (mice) ([2]; Dose 1000 μ/kg): 8
- Lymphocyte and leukocyte counts versus control mice ([2]; peripheral blood, day 14 and day 28, Table 20 not given): significantly higher
